# Experiments:
# [1] = system: C/EBPα; experiment: Real-Time RT-PCR, C/EBPα mRNA in HWP; assay type: cell-based, human; settings: day 15
# From the text: (§1) Quantitative Real-Time RT-PCR: Real-Time reverse transcriptase polymerase chain reaction (RT-PCR) analysis was used to measure mRNA expression of human genes PPARγ, C/EBPα, GATA-2 and GATA-3 under the control of β-actin. Briefly, total RNA was isolated from HWP following treatment at days 15 with Trizol reagent (Invitrogen, Carlsbad, Calif., USA) according to the manufacturer's instruction. RNA was quantified using absorption of light at 260 and 280 nm, and sample integrity was checked by 1.5% agarose gel electrophoresis. 0.8 μg of total RNA from each sample was used for reverse transcription reaction using the TaqMan Reverse Transcription Reagents (Applied Biosystems, Foster City, Calif., USA) following the Manufacturer's instructions. PCR was done using the SYBR green Master Mix (Applied Biosystems, Foster City, Calif., USA) following the manufacturer's instructions. The temperature cycling conditions of amplification were as follows: an initial step of denaturation at 95° C. for 10 min, 40 cycles of denaturation at 95° C. for 30 s, annealing at 55° C. for 30 s, and elongation at 72° C. for 30 s. Real-Time RT-PCR was performed using Mx3000P Real-Time Thermocyclers (Statagene, La Jolla, Calif., USA). The relative mRNA levels of these genes were calculated by Pfaffl's mathematical method (Pfaffl, M W, Nucleic Acid Res (2001) 29:e45) and normalized with control-treated groups.
# [2] = system: human white preadipocytes (HWP); experiment: Oil-Red-O staining and quantification, HWP differentiation; assay type: cell-based; settings: 15 days post differentiation induction
# Procedure: Cell culture: Cell culture was carried out following the protocol provided by Promocell Company. […] Differentiation was induced with preadipocyte Differentiation Medium (DM) for 3 days (days 3), where upon the medium was changed to adipocyte Nutrition Medium (NM) and cultured for 12 days (days 15) (HWP cell line and media were purchased from Promocell, Heidelberg, Germany).
# Oil-Red-O Staining and quantification: Oil-Red-O Staining and quantitative Oil-Red-O Staining were performed as previously reported. Briefly, medium was removed and cells were washed with PBS twice, fixed with 3.7% formalin at room temperature for 30 min, then rinsed with water, added 60% 2-propanol and incubated for 5 minutes, then moved out 2-propanol and stained cells with Oil-Red-O solution (Oil-Red-O store solution (3 mg/ml in pure 2-propanol): water=3:2) at room temperature for 10 min. Then the Oil-Red-O solution was removed and cells were washed 3 times with water. Images were obtained using an Olympus IX70 inverted microscope equipped for phase-contrast microscopy (Olympus, Tokyo, Japan). After staining, the cells were washed twice with 70% ethanol to remove excess stain. Stained oil droplets in the cells were dissolved in 2-propanol containing 4% Nonidet-P40 (Fisher Scientific, Pittsburgh, Pa., USA) and OD values were measured at an absorbance of 490 nm.
# [3] = system: PPARγ; experiment: Real-Time RT-PCR, PPARγ mRNA in HWP; assay type: cell-based, human; settings: day 15
# From the text: as §1
# [4] = system: GATA-2; experiment: Real-Time RT-PCR, GATA-2 mRNA in HWP; assay type: cell-based, human; settings: day 15
# From the text: as §1
# [5] = system: GATA-3; experiment: Immunoblot, GATA-3 protein in HWP; assay type: cell-based, human; settings: day 15
# Procedure: (§2) Immunoblot Analysis: Protein expression of GATA-2, GATA-3, PPARγ and C/EBPα were assessed by Western Blot. Total proteins were isolated from HWP treated with compounds or vehicles on day 15. The cells were washed twice with PBS, lysed in a lysis buffer containing HEPES-Tx-PI buffer: […] HEPES, 5 mM EDTA, 350 mM Sucrose, 1 μg/ml leupeptin, 1 μg/ml pepstatin, 1% Triton-X, 1 mM PMSF), processed with a 25G needle and centrifuged at 10,000 rpm for 5 min. Protein concentration was determined using the Micro BCA Protein Assay Kit (Fisher Scientific, Pittsburgh, Pa., USA) according to the manufacturers instructions. 20 μg proteins were loaded and separated by electrophoresis using the BioRad Electrophoretic System (60 V for 1 hour followed by 90 V for 5 hours). The proteins were then transferred to nitrocellulose membranes at 35 V overnight. The membrane was blocked for 1 hour at room temperature in 5% nonfat milk in Tris-buffered saline (TBS), then washed with Tween-20-TBS (TTBS, 0.1% Tween-20) three times (15 min, 5 min, 5 min), followed by incubation with primary antibodies human GATA-2, GATA-3, PPARγ, C/EBPα and β-actin (dilution 1:200) (all antibodies were purchased from Santa Cruz Biotechnology, Santa Cruz, Calif., USA) at room temperature for 2 hours. The membrane was rinsed three times (15 min, 5 min, 5 min), then incubated at room temperature for 1 hour with Horseradish peroxidase-conjugated second antibody (1:10,000). The membrane was then incubated in ECL reagent (GE Healthcare, Piscataway, N.J., USA) for 1 minute. Protein was visualized using the UVP image analysis system (UVP, Upland, Calif., USA).
# [6] = system: human white preadipocytes (HWP); experiment: MTT assay, viability of HWP during differentiation; assay type: cell-based; settings: 15 days of differentiation
# Procedure: Cell culture: Cell culture was carried out following the protocol provided by Promocell Company. Briefly, human white preadipocytes (HWP's […]) were cultured at 37° C. in a humidified 5% CO2 atmosphere and grown in a preadipocyte Growth medium (GM) with 100 units/ml penicillin and 100 μg/ml streptomycin until confluence (day 0). Differentiation was induced with preadipocyte Differentiation Medium (DM) for 3 days (days 3), where upon the medium was changed to adipocyte Nutrition Medium (NM) and cultured for 12 days (days 15) (HWP cell line and media were purchased from Promocell, Heidelberg, Germany).
# [7] = system: C/EBPα; experiment: Immunoblot, C/EBPα protein in HWP; assay type: cell-based, human; settings: day 15
# Procedure: as §2, with “The membrane was rinsed three times (15 min, 5 min, 5 min), then incubated at room temperature for 1 hour with Horseradish peroxidase-conjugated second antibody (1:10,000). The membrane was then incubated in ECL reagent (GE Healthcare, Piscataway, N.J., USA) for 1 minute. Protein was visualized using the UVP image analysis system (UVP, Upland, Calif., USA).” left out
# [8] = system: GATA-3; experiment: Real-Time RT-PCR, GATA-3 mRNA in HWP; assay type: cell-based, human; settings: day 15
# From the text: as §1
# [9] = system: PPARγ; experiment: Immunoblot, PPARγ protein in HWP; assay type: cell-based, human; settings: day 15
# Procedure: as §2, with “The membrane was rinsed three times (15 min, 5 min, 5 min), then incubated at room temperature for 1 hour with Horseradish peroxidase-conjugated second antibody (1:10,000). The membrane was then incubated in ECL reagent (GE Healthcare, Piscataway, N.J., USA) for 1 minute. Protein was visualized using the UVP image analysis system (UVP, Upland, Calif., USA).” left out
# [10] = system: SERT (serotonin transporter); experiment: Immunoblot, SERT protein in RN46A cells; assay type: cell-based
# Procedure: Immunoblot Analysis: Protein expression of SERT was assessed by Western Blot. Total proteins were isolated from RN46A cells treated with compounds or vehicles. The cells were washed twice with PBS, lysed in a lysis buffer containing HEPES-Tx-PI buffer: 910 mM HEPES, 5 mM EDTA, 350 mM Sucrose, 1 μg/ml leupeptin, 1 μg/ml pepstatin, 1% Triton-X, 1 mM PMSF), processed with a 25G needle and centrifuged at 10,000 rpm for 5 min. Protein concentration was determined using the Micro BCA Protein Assay Kit (Fisher Scientific, Pittsburgh, Pa., USA) according to the manufacturers instructions. 25 μg proteins were loaded and separated by electrophoresis using the BioRad Electrophoretic System (60 V for 1 hour followed by 90 V for 5 hours). The proteins were then transferred to nitrocellulose membranes at 35 V overnight. The membrane was blocked for 1 hour at room temperature in 5% nonfat milk in Tris-buffered saline (TBS), then washed with Tween-20-TBS (TTBS, 0.1% Tween-20) three times (15 min, 5 min, 5 min), followed by incubation with primary antibodies SERT (dilution 1:200) (Antibody was purchased from Santa Cruz Biotechnology, Santa Cruz, Calif., USA) and β-actin (dilution 1:1000) (Antibody was purchased from Sigma-aldrich, USA) at room temperature for 2 hours. […]
Molecule,change in C/EBPα mRNA expression [1],reduction in lipid content ([2]; 1 μM),reduction in lipid content ([2]; 2 μM),reduction in lipid content ([2]; 4 μM),reduction in lipid content ([2]; 8 μM),change in PPARγ mRNA expression [3],GATA-2 mRNA expression vs vehicle (control) group ([4]; 1 μM),GATA-2 mRNA expression vs vehicle (control) group ([4]; 2 μM),GATA-2 mRNA expression vs vehicle (control) group ([4]; 4 μM),GATA-3 protein expression vs controls ([5]; 1 μM),GATA-3 protein expression vs controls ([5]; 2 μM),GATA-3 protein expression vs controls ([5]; 4 μM),decrease of cell viability vs control ([6]; 1 μM),decrease of cell viability vs control ([6]; 2 μM),decrease of cell viability vs control ([6]; 4 μM),decrease of cell viability vs control ([6]; 8 μM),"C/EBPα protein expression, drug-treated vs control cells [7]",GATA-3 mRNA expression vs control group ([8]; 1 μM),GATA-3 mRNA expression vs control group ([8]; 2 μM),GATA-3 mRNA expression vs control group ([8]; 4 μM),other results
"COc1ccc2cc3[n+](cc2c1OC)CCc1cc2c(cc1-3)OCO2.[Cl-] [berberine, Berberine (Chloride Form)]",no significant changes,31.9%,42.9%,60.6%,66.4%,no significant changes,3.87 fold,4.1 fold,3.8 fold,5.63 fold,5.65 fold,6.43 fold,−3.1%,1.1%,−0.0%,1.3%,no significant difference,2.77 fold,2.79 fold,4.43 fold,"GATA-2 mRNA expression vs vehicle (control) group ([4]; 8 μM): 5.33 fold; GATA-3 protein expression vs controls ([5]; 8 μM): 5.37 fold; GATA-3 mRNA expression vs control group ([8]; 8 μM): 6.77 fold; PPARγ protein expression, drug-treated vs control cells [9]: no significant difference"
evodiamine,no significant changes,27.8%,46.7%,84.6%,112.6%,no significant changes,1.36 fold,1.5 fold,2.08 fold,4.21 fold,4.95 fold,6.57 fold,17.7%,30.5%,34.2%,53.6%,no significant difference,2.61 fold,2.7 fold,2.79 fold,"SERT protein expression profile (Western blot) [10]: consistent with its mRNA expression profile; reduction in lipid content ([2]; 0.125 μM): 7.5%; reduction in lipid content ([2]; 0.25 μM): 13.8%; reduction in lipid content ([2]; 0.5 μM): 19%; decrease of cell viability vs control ([6]; 0.25 μM): 14.1%; decrease of cell viability vs control ([6]; 0.5 μM): 15%; PPARγ protein expression, drug-treated vs control cells [9]: no significant difference"

# Reference: US20110281852A1 (priority 2010, published 2011)
